Laboratory results published in ChEMBL document CHEMBL4725331, “An investigative study of antitumor properties of a novel thiazolo[4,5-d]pyrimidine small molecule revealing superior antitumor activity with CDK1 selectivity and potent pro-apoptotic properties” (Bioorg Med Chem, 2020).

How the values were obtained:
[1] = system: A498; test: Antiproliferative activity against human A498 cells assessed as inhibition of cell growth measured after 48 hrs by SRB assay; format: functional
[2] = system: KM12; test: Antiproliferative activity against human KM12 cells assessed as inhibition of cell growth measured after 48 hrs by SRB assay; format: functional
[3] = system: NCI-H23; test: Antiproliferative activity against human NCI-H23 cells assessed as inhibition of cell growth measured after 48 hrs by SRB assay; format: functional
[4] = system: NCI-H522; test: Antiproliferative activity against human NCI-H522 cells assessed as inhibition of cell growth measured after 48 hrs by SRB assay; format: functional
[5] = system: HCT-116; test: Induction of apoptosis in human HCT116 cells assessed as up regulation of caspase-3 expression by RT-PCR analysis relative to untreated control; format: functional
[6] = system: HCT-15; test: Antiproliferative activity against human HCT-15 cells assessed as inhibition of cell growth measured after 48 hrs by SRB assay; format: functional
[7] = system: TK-10; test: Antiproliferative activity against human TK-10 cells assessed as inhibition of cell growth measured after 48 hrs by SRB assay; format: functional
[8] = system: MDA-MB-231; test: Antiproliferative activity against human MDA-MB-231 cells assessed as inhibition of cell growth measured after 48 hrs by SRB assay; format: functional
[9] = system: UACC-62; test: Antiproliferative activity against human UACC-62 cells assessed as inhibition of cell growth at 10 uM measured after 48 hrs by SRB assay relative to control; format: functional
[10] = system: HL-60(TB); test: Antiproliferative activity against human HL-60(TB) cells assessed as inhibition of cell growth measured after 48 hrs by SRB assay; format: functional
[11] = system: BT-549; test: Antiproliferative activity against human BT-549 cells assessed as inhibition of cell growth measured after 48 hrs by SRB assay; format: functional
[12] = system: HCT-116; test: Induction of apoptosis in human HCT-116 cells assessed as necrotic cells at IC50 incubated for 48 hrs by annexin-V FITC and propidium iodide staining based flow cytometry analysis (reference value: 0.51 %); format: functional
[13] = system: A549; test: Antiproliferative activity against human A549 cells assessed as inhibition of cell growth measured after 48 hrs by SRB assay; format: functional
[14] = system: SF-539; test: Antiproliferative activity against human SF-539 cells assessed as inhibition of cell growth measured after 48 hrs by SRB assay; format: functional
[15] = Selectivity index, ratio of IC50 for human WI-38 cells to IC50 for human HCT116 cells after 48 hrs by MTT assay; format: toxicity; conditions: WI-38 cells versus HCT116 cells, read-out: Ratio IC50
[16] = system: HCT-116; test: Antiproliferative activity against human HCT-116 cells assessed as inhibition of cell growth measured after 48 hrs by SRB assay; format: functional
[17] = system: NCI-H23; test: Antiproliferative activity against human NCI-H23 cells assessed as inhibition of cell growth at 10 uM measured after 48 hrs by SRB assay relative to control; format: functional
[18] = system: HT-29; test: Antiproliferative activity against human HT-29 cells assessed as inhibition of cell growth measured after 48 hrs by SRB assay; format: functional
[19] = system: HCT-116; test: Cell cycle arrest in human HCT-116 cells assessed as accumulation in sub-G phase at IC50 concentration incubated for 48 hrs by propidium iodide staining based flow cytometry analysis (reference value: 2.4 %); format: functional
[20] = system: HCT-116; test: Induction of apoptosis in human HCT116 cells assessed as decrease in Bcl2 gene expression by RT-PCR analysis relative to untreated control; format: functional
[21] = system: Malme-3M; test: Antiproliferative activity against human Malme-3M cells assessed as inhibition of cell growth measured after 48 hrs by SRB assay; format: functional
[22] = system: HCT-116; test: Induction of apoptosis in human HCT-116 cells assessed as late apoptotic cells at IC50 incubated for 48 hrs by annexin-V FITC and propidium iodide staining based flow cytometry analysis (reference value: 0.28 %); format: functional
[23] = system: WI-38; test: Cell cycle arrest in human WI-38 cells assessed as accumulation in S phase phase at IC50 concentration incubated for 48 hrs by propidium iodide staining based flow cytometry analysis (reference value: 33.8 %); conditions: wi-38, 48 h
[24] = system: 786-0; test: Antiproliferative activity against human 786-0 cells assessed as inhibition of cell growth at 10 uM measured after 48 hrs by SRB assay relative to control; format: functional
[25] = system: SF-268; test: Antiproliferative activity against human SF-268 cells assessed as inhibition of cell growth measured after 48 hrs by SRB assay; format: functional
[26] = system: SF-539; test: Antiproliferative activity against human SF-539 cells assessed as inhibition of cell growth at 10 uM measured after 48 hrs by SRB assay relative to control; format: functional
[27] = system: OVCAR-8; test: Antiproliferative activity against human OVCAR-8 cells assessed as inhibition of cell growth at 10 uM measured after 48 hrs by SRB assay relative to control; format: functional
[28] = system: K562; test: Antiproliferative activity against human K562 cells assessed as inhibition of cell growth at 10 uM measured after 48 hrs by SRB assay relative to control; format: functional
[29] = system: PC-3; test: Antiproliferative activity against human PC-3 cells assessed as inhibition of cell growth at 10 uM measured after 48 hrs by SRB assay relative to control; format: functional
[30] = system: OVCAR-3; test: Antiproliferative activity against human OVCAR-3 cells assessed as inhibition of cell growth measured after 48 hrs by SRB assay; format: functional
[31] = system: OVCAR-4; test: Antiproliferative activity against human OVCAR-4 cells assessed as inhibition of cell growth measured after 48 hrs by SRB assay; format: functional
[32] = system: SK-MEL-28; test: Antiproliferative activity against human SK-MEL-28 cells assessed as inhibition of cell growth measured after 48 hrs by SRB assay; format: functional
[33] = system: LOX IMVI; test: Antiproliferative activity against human LOX IMVI cells assessed as inhibition of cell growth measured after 48 hrs by SRB assay; format: functional
[34] = read-out: LC50 (the source's name)

Question: With `COc1ccc(-n2c(=S)sc3c(Cl)nc(C)nc32)c(OC)c1` as the compound, how does the GI50 [1] read?
Answer: Its GI50 is 11.5 µM.

Question: What about the TGI [1] of the same compound?
Answer: Its TGI is 24 µM.

Question: And the CC50 [1, 34]?
Answer: The CC50 was 49 µM.

Question: What about the GI50 [2] of the same compound?
Answer: The GI50 was 3.31 µM.

Question: What about the TGI [2] of the same compound?
Answer: Its TGI is 11.5 µM.

Question: What about the CC50 [2, 34] of the same compound?
Answer: Its CC50 is 37.1 µM.

Question: What about the GI50 [3] of the same compound?
Answer: The GI50 was 2.45 µM.

Question: And the TGI [3]?
Answer: The TGI was 5.89 µM.

Question: What about the CC50 [3, 34] of the same compound?
Answer: The CC50 was 57.5 µM.

Question: And the GI50 [4]?
Answer: The GI50 was 1.82 µM.

Question: What about the TGI [4] of the same compound?
Answer: The TGI was 3.89 µM.

Question: And the CC50 [4, 34]?
Answer: Its CC50 is 8.32 µM.

Question: What about the “fold change (FC)” value [5] of the same compound?
Answer: Its value is 11.2.

Question: And the GI50 [6]?
Answer: Its GI50 is 1.95 µM.

Question: What about the TGI [6] of the same compound?
Answer: Its TGI is 5.37 µM.

Question: What about the CC50 [6, 34] of the same compound?
Answer: The CC50 was 41.7 µM.

Question: What about the GI50 [7] of the same compound?
Answer: The GI50 was 4.68 µM.

Question: And the TGI [7]?
Answer: Its TGI is 18.6 µM.

Question: And the CC50 [7, 34]?
Answer: The CC50 was 58.9 µM.

Question: And the GI50 [8]?
Answer: Its GI50 is 3.16 µM.

Question: And the TGI [8]?
Answer: Its TGI is 10.2 µM.

Question: What about the CC50 [8, 34] of the same compound?
Answer: The CC50 was 34.7 µM.

Question: What about the inhibition at 10 µM [9] of the same compound?
Answer: The inhibition at 10 µM was > 50%.

Question: And the GI50 [10]?
Answer: The GI50 was 1.41 µM.

Question: What about the TGI [10] of the same compound?
Answer: The TGI was 5.89 µM.

Question: What about the CC50 [10, 34] of the same compound?
Answer: Its CC50 is > 100 µM.

Question: What about the GI50 [11] of the same compound?
Answer: The GI50 was 2 µM.

Question: And the TGI [11]?
Answer: The TGI was 4.27 µM.

Question: What about the CC50 [11, 34] of the same compound?
Answer: Its CC50 is 9.12 µM.

Question: And the Activity [12]?
Answer: Its Activity is 3.31%.

Question: And the GI50 [13]?
Answer: Its GI50 is 4.47 µM.

Question: What about the TGI [13] of the same compound?
Answer: The TGI was 15.8 µM.

Question: What about the CC50 [13, 34] of the same compound?
Answer: Its CC50 is 40.7 µM.

Question: What about the GI50 [14] of the same compound?
Answer: Its GI50 is 2.09 µM.

Question: And the TGI [14]?
Answer: The TGI was 4.57 µM.

Question: And the CC50 [14, 34]?
Answer: Its CC50 is 10 µM.

Question: And the selectivity ratio at 48 h [15]?
Answer: Its selectivity ratio at 48 h is 4.

Question: What about the GI50 [16] of the same compound?
Answer: Its GI50 is 1.82 µM.

Question: What about the TGI [16] of the same compound?
Answer: The TGI was 3.72 µM.

Question: What about the CC50 [16, 34] of the same compound?
Answer: Its CC50 is 7.59 µM.

Question: And the inhibition at 10 µM [17]?
Answer: Its inhibition at 10 µM is > 50%.

Question: What about the GI50 [18] of the same compound?
Answer: The GI50 was 2.4 µM.

Question: And the TGI [18]?
Answer: Its TGI is 6.31 µM.

Question: And the CC50 [18, 34]?
Answer: Its CC50 is 57.5 µM.

Question: What about the Activity [19] of the same compound?
Answer: The Activity was 17.67%.

Question: What about the “fold change (FC)” value [20] of the same compound?
Answer: Its value is 3.64.

Question: And the GI50 [21]?
Answer: Its GI50 is 2.24 µM.

Question: And the TGI [21]?
Answer: Its TGI is 6.17 µM.

Question: And the CC50 [21, 34]?
Answer: The CC50 was 27.5 µM.

Question: What about the Activity [22] of the same compound?
Answer: The Activity was 12.78%.

Question: What about the Activity [23] of the same compound?
Answer: The Activity was 26.39%.

Question: And the inhibition at 10 µM [24]?
Answer: The inhibition at 10 µM was > 50%.

Question: What about the GI50 [25] of the same compound?
Answer: The GI50 was 2.19 µM.

Question: What about the TGI [25] of the same compound?
Answer: Its TGI is 5.25 µM.

Question: And the CC50 [25, 34]?
Answer: The CC50 was 17 µM.

Question: What about the inhibition at 10 µM [26] of the same compound?
Answer: Its inhibition at 10 µM is > 50%.

Question: What about the inhibition at 10 µM [27] of the same compound?
Answer: The inhibition at 10 µM was > 50%.

Question: And the inhibition at 10 µM [28]?
Answer: Its inhibition at 10 µM is > 50%.

Question: What about the inhibition at 10 µM [29] of the same compound?
Answer: Its inhibition at 10 µM is > 50%.

Question: What about the GI50 [30] of the same compound?
Answer: The GI50 was 1.78 µM.

Question: And the TGI [30]?
Answer: Its TGI is 3.24 µM.

Question: And the CC50 [30, 34]?
Answer: The CC50 was 5.89 µM.

Question: And the GI50 [31]?
Answer: Its GI50 is 4.68 µM.

Question: What about the TGI [31] of the same compound?
Answer: Its TGI is 15.5 µM.

Question: And the CC50 [31, 34]?
Answer: Its CC50 is 41.7 µM.

Question: And the GI50 [32]?
Answer: The GI50 was 2.19 µM.

Question: And the TGI [32]?
Answer: Its TGI is 4.57 µM.

Question: What about the CC50 [32, 34] of the same compound?
Answer: Its CC50 is 9.77 µM.

Question: What about the GI50 [33] of the same compound?
Answer: Its GI50 is 1.7 µM.

Question: What about the TGI [33] of the same compound?
Answer: The TGI was 3.16 µM.

Question: What about the CC50 [33, 34] of the same compound?
Answer: Its CC50 is 6.03 µM.
